Target: T1, Glutathione reductase, mitochondrial (Homo sapiens, UniProt P00390)
T1 sequence (P00390 whole entry): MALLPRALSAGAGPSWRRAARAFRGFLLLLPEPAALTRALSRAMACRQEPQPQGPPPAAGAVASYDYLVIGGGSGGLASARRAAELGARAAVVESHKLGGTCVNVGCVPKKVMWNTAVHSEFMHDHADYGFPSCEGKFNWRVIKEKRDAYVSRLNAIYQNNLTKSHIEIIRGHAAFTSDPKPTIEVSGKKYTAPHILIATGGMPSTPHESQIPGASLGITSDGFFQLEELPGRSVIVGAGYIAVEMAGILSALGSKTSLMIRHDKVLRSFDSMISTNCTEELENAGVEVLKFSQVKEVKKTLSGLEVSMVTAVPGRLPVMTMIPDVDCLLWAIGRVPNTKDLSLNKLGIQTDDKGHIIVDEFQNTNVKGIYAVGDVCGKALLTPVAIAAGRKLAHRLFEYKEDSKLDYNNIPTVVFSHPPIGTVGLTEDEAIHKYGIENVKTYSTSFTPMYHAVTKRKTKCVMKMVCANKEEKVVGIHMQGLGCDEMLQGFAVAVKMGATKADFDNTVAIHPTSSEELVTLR
Assay: Inhibitory concentration against human glutathione reductase

IC50: 1 µM
Structure (SMILES): O=C(Cc1ccc2ccc(NC(=O)C[N]3CC[NH][Pt]3([Cl])[Cl])cc2c1)NNC(=O)c1ccc([N+](=O)[O-])o1 [2-(2-Amino-ethylamino)-N-(7-{2-[N'-(5-nitro-furan-2-carbonyl)-hydrazino]-2-oxo-ethyl}-naphthalen-2-yl)-acetamide; compound with GENERIC INORGANIC NEUTRAL COMPONENT]
